Experimental data taken from paper PMC3101196, “Trapping Conformational States Along Ligand-Binding Dynamics of Peptide Deformylase: The Impact of Induced Fit on Enzyme Catalysis” (PLoS Biology, 2011).
Where “and” joins values, the source holds several entries; their conditions need not be identical. Identical values can stand only once.

Experiments:
[1] = system: CSCC[C@H](NC=O)C(=O)N[C@@H](C)C(=O)N[C@@H](CO)C(=O)O; assay: purified protein, by the assay type; details: other: G41Q, substrate Fo-Met-Ala-Ser, 100 nM enzyme, 750 µM NiCl2, 37°C
Experimental: The kinetics parameters were derived from iterative non-linear least square calculations using the Michaelis-Menten equation based on the experimental data (Sigma-Plot; Kinetics module). […] The data were then calculated according to the method of Henderson, which can be used to determine the dissociation constant of the tight-binding competitive enzyme inhibitor [28],[49],[72] by varying both the inhibitor and substrate concentrations. To determine K I, k 5, and k 6, the reaction was initiated by the addition of enzyme as previously described [29],[49]. […] From the set of values obtained at various concentrations of I, k5 and k6 could be derived using kobs = k6 + k5[I]/(KI + [I]).

[2] = system: AtPDF wild-type (WT) and G41M and G41Q; assay: ΔΔGbinding calculated from Kd values; set-up: species or system Arabidopsis thaliana; details: calculated from the K d values for actinonin binding to WT and G41M and G41Q
Experimental: The percentage of the distance required to make a hydrogen bond (2.8 Å) is reported (dark squares). […] The values were calculated as follows. For the WT, it corresponds to the RT ln(KI*/KI) value, where R is the ideal gas constant and T is the temperature in Kelvin. RT is 0.616 kcal.mol^−1 at 37°C. For the G41M and G41Q variants, the ΔΔGbinding corresponds to RT ln(KI-G41variant/KD-WT). The obtained values are similar to that obtained if the kcat/Km substitutes the KD value in the calculation (ΔΔGbinding = RT ln(kcat/Km –G41variant/kcat/Km –WT). (EPS) Click here for additional data file.

AtPDF [3] = target: T1, AtPDF (Arabidopsis thaliana, UniProt Q9FUZ2); assay: Differential scanning calorimetry (DSC), thermal stability; format: binding; set-up: Expression and purification of mature Arabidopsis thaliana PDF1B and all variants (i.e., AtPDF); made in house; details: 10 µM protein, 20 µM actinonin; free enzyme 61°C
Experimental: (§1) ITC experiments were performed using a VP-ITC isothermal titration calorimeter (Microcal Corp.). Experiments were performed at 37°C. […] A theoretical titration curve was fitted to the experimental data using the ORIGIN software (Microcal). This software uses the relationship between the heat generated after each injection and ΔH° (enthalpy change in kcal/mol), K A (the association binding constant in M^−1), n (number of binding sites per monomer), total protein concentration, and free and total ligand concentrations. The thermal stability of the WT and variants of Ni-AtPDF1B was studied by DSC using VP-DSC calorimetry (Microcal Corp.). DSC measurements were made with 10 µM protein solutions in buffer C. […] The same buffer was used as a reference. All solutions were degassed just before loading into the calorimeter. Scanning was performed at 1°C/min. The temperature dependence of the partial molar capacity (Cp) was expressed in kcal/K after subtracting the buffer signal using Origin(R) software.

EcPDF = EcPDF (Escherichia coli, UniProt P0A6K3)
Chain of EcPDF (P0A6K3 whole entry): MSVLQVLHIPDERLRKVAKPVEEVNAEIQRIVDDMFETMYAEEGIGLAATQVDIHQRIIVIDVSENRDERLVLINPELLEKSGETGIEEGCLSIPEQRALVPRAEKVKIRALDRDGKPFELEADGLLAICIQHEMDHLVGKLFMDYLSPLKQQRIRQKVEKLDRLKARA
Experimental: (§2) Assay of PDF activity was coupled to formate dehydrogenase, where the absorbance of NADH at 340 nm was measured at 37°C as previously described. […] The kinetics parameters were derived from iterative non-linear least square calculations using the Michaelis-Menten equation based on the experimental data (Sigma-Plot; Kinetics module). […] The data were then calculated according to the method of Henderson, which can be used to determine the dissociation constant of the tight-binding competitive enzyme inhibitor [28],[49],[72] by varying both the inhibitor and substrate concentrations. To determine K I, k 5, and k 6, the reaction was initiated by the addition of enzyme as previously described,[49]. […] From the set of values obtained at various concentrations of I, k5 and k6 could be derived using kobs = k6 + k5[I]/(KI + [I]).

AtPDF variant I42A = target: T2, AtPDF variant I42A (Arabidopsis thaliana, UniProt Q9FUZ2, I122A); assay: biochemical
T2 construct: Expression and purification of mature Arabidopsis thaliana PDF1B and all variants (i.e., AtPDF); made in house
T2 sequence (Q9FUZ2 57-273 I122A): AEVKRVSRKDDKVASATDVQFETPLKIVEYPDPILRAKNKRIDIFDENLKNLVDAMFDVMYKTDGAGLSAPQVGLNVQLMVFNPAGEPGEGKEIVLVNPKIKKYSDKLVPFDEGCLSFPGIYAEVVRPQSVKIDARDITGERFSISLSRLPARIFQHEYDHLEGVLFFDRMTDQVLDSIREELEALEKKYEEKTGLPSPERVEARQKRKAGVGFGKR
Experimental: as §2

AtPDF variant I42F [4] = target: T3, AtPDF variant I42F (Arabidopsis thaliana, UniProt Q9FUZ2, I122F); assay: Isothermal titration calorimetry (ITC); format: binding
T3 construct: Expression and purification of mature Arabidopsis thaliana PDF1B and all variants (i.e., AtPDF); made in house
T3 sequence (Q9FUZ2 57-273 I122F): as the sequence (Q9FUZ2 57-273 I122A) above, with A66F counted along it
Experimental: as §1
(§3) The volume of each reaction was 10 µl, and injections were made at 240 s intervals. Top, raw data from the titration. Each peak corresponds to the injection. Bottom, the peaks in the upper panel were integrated with ORIGIN software and the values were plotted versus injection number. Each point corresponds to the heat in µcal generated by the reaction upon each injection. The solid line is the curve fit to the data by the Origin program. This fit yields values for K d. Experiments were done with wild type protein and others variants, and gave similar raw data and curve fit. (A) WT; (B) variant G41M; (C) variant I42W. (EPS) Click here for additional data file.

AtPDF variant I42W [5] = target: T4, AtPDF variant I42W (Arabidopsis thaliana, UniProt Q9FUZ2, I122W); assay: Isothermal titration calorimetry (ITC); format: binding
T4 construct: Expression and purification of mature Arabidopsis thaliana PDF1B and all variants (i.e., AtPDF); made in house
Experimental: as §1, §3
Target sequence in this assay (Q9FUZ2 57-273 I122W): as the sequence (Q9FUZ2 57-273 I122A) above, with A66W counted along it

AtPDF variant G41M [6] = target: T5, AtPDF variant G41M (Arabidopsis thaliana, UniProt Q9FUZ2, G121M); assay: Isothermal titration calorimetry (ITC); format: binding
T5 construct: Expression and purification of mature Arabidopsis thaliana PDF1B and all variants (i.e., AtPDF); made in house
T5 sequence (Q9FUZ2 57-273 G121M): as the sequence (Q9FUZ2 57-273 I122A) above, with G65M, A66I counted along it
Experimental: as §1, §3

AtPDF [7] = target: T1, AtPDF; assay: PDF activity assay coupled to formate dehydrogenase (NADH absorbance at 340 nm)
Experimental: as §2
(§4) The enzyme concentration used in the assay was 100 nM.

AtPDF variant G41Q [8] = target: AtPDF variant G41Q (Arabidopsis thaliana, UniProt Q9FUZ2, G121Q); assay: PDF activity assay coupled to formate dehydrogenase
Chain of AtPDF variant G41Q (Arabidopsis thaliana, UniProt Q9FUZ2, G121Q) (Q9FUZ2 83-273 G121Q): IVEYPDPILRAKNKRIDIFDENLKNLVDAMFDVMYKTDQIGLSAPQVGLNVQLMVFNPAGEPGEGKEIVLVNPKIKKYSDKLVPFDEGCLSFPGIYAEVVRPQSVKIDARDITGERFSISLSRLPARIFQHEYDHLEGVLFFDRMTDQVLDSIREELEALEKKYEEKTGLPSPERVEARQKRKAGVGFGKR
Experimental: as §2

AtPDF variant I42F [9] = target: T3, AtPDF variant I42F; assay: biochemical; details: for Ki: 100 nM enzyme
Experimental: as §2, §4

AtPDF variant I130A = target: T6, AtPDF variant I130A (Arabidopsis thaliana, UniProt Q9FUZ2, I210A); assay: biochemical; details: for Ki: 100 nM enzyme
T6 construct: Expression and purification of mature Arabidopsis thaliana PDF1B and all variants (i.e., AtPDF); made in house
T6 sequence (Q9FUZ2 57-273 I210A): as the sequence (Q9FUZ2 57-273 I122A) above, with A66I, I154A counted along it
Experimental: as §2, §4

AtPDF variant I42N = target: T7, AtPDF variant I42N (Arabidopsis thaliana, UniProt Q9FUZ2, I122N); assay: biochemical; details: for Ki: 100 nM enzyme
T7 construct: Expression and purification of mature Arabidopsis thaliana PDF1B and all variants (i.e., AtPDF); made in house
T7 sequence (Q9FUZ2 57-273 I122N): as the sequence (Q9FUZ2 57-273 I122A) above, with A66N counted along it
Experimental: as §2, §4

AtPDF variant I42W [10] = target: T4, AtPDF variant I42W; assay: biochemical; details: for Ki: 100 nM enzyme
Experimental: as §2, §4
Target sequence in this assay (Q9FUZ2 83-273 I122W): as the sequence (Q9FUZ2 83-273 G121Q) above, with Q39G, I40W counted along it

[11] = system: almost all of the AtPDF variants; assay: Differential scanning calorimetry (DSC), thermal stability; format: binding, Arabidopsis thaliana
Experimental: as §1

AtPDF variant G41Q [12] = system: T8, AtPDF variant G41Q; assay: as above; format: binding, Arabidopsis thaliana
T8 construct: Expression and purification of mature Arabidopsis thaliana PDF1B and all variants (i.e., AtPDF); made in house
Experimental: as §1

AtPDF [13] = target: T1, AtPDF; assay: Isothermal titration calorimetry (ITC); format: binding; set-up: Expression and purification of mature Arabidopsis thaliana PDF1B and all variants (i.e., AtPDF); made in house; details: WT; from ITC (value in parentheses); 37°C
Experimental: as §1
The volume of each reaction was 10 µl, and injections were made at 240 s intervals. Top, raw data from the titration. Each peak corresponds to the injection. Bottom, the peaks in the upper panel were integrated with ORIGIN software and the values were plotted versus injection number. Each point corresponds to the heat in µcal generated by the reaction upon each injection. […]

AtPDF variant G41M [14] = target: T5, AtPDF variant G41M; assay: Differential scanning calorimetry (DSC), thermal stability; format: binding
Experimental: as §1

AtPDF variant G41M [15] = target: T5, AtPDF variant G41M; format: biochemical; details: nm = not measurable
Experimental: as §2

[16] = substrate: CSCC[C@H](NC=O)C(=O)N[C@@H](C)C(=O)N[C@@H](CO)C(=O)O; assay: purified protein, by the assay type; details: other: WT, substrate Fo-Met-Ala-Ser, 100 nM enzyme, 750 µM NiCl2, 37°C
Experimental: Assay of PDF activity was coupled to formate dehydrogenase, where the absorbance of NADH at 340 nm was measured at 37°C as previously described [71]. […] The kinetics parameters were derived from iterative non-linear least square calculations using the Michaelis-Menten equation based on the experimental data (Sigma-Plot; Kinetics module). […] The data were then calculated according to the method of Henderson, which can be used to determine the dissociation constant of the tight-binding competitive enzyme inhibitor [28],[49],[72] by varying both the inhibitor and substrate concentrations. To determine K I, k 5, and k 6, the reaction was initiated by the addition of enzyme as previously described [29],[49]. […] From the set of values obtained at various concentrations of I, k5 and k6 could be derived using kobs = k6 + k5[I]/(KI + [I]).

[17] = value is k5 multiplied by 10^3, no preincubation
[18] = value is k6 multiplied by 10^4, no preincubation
[19] = KI*app, 2 mM substrate, actinonin preincubated 10 min at 37°C
[20] = KI, no preincubation, started by adding enzyme

AtPDF variant G41Q (Arabidopsis thaliana; G121Q)
Km [1]: 6.7 ± 1.7 mM
kcat [1]: 0.14 ± 0.02 s⁻¹
kcat/Km [1]: 20 ± 10 M⁻¹ s⁻¹

CCCCC[C@H](CC(=O)NO)C(=O)N[C@H](C(=O)N1CCC[C@H]1CO)C(C)C [actinonin]
ΔΔGbinding [2]: 9.2 to 10 kJ/mol
T m of AtPDF upon binding of the inhibitor (AtPDF [3]): 81 °C
k4, dissociation of the primary enzyme-actinonin complex (EcPDF; assumes k3 = 10^9 M−1.s^−1): 112 ± 10 s⁻¹
k 5 (s^−1) ×10^3 (EcPDF; [17]): 170±20 s^−1 ×10^3
k 6 (s^−1) ×10^4 (EcPDF; [18]): 19±2 s^−1 ×10^4
Kd (AtPDF variant I42A): 3 nM
Kd (AtPDF variant I42F [4]): 3.6 nM
Kd (AtPDF variant I42W [5]): 3.7 nM
Kd (AtPDF variant G41M [6]): 32 nM
Kd (AtPDF [7]): 0.9 nM
Ki (AtPDF [7]; K I*, enzyme 100 nM, actinonin preincubated with enzyme 10 min at 37°C, assay initiated by substrate): 0.9 ± 0.5 nM
Ki (AtPDF [7]; KI*app, Wild-type, 100 nM enzyme, 2 mM substrate, actinonin preincubated 10 min at 37°C): 2.3 ± 0.3 nM
binding free energy difference between the two complexes (AtPDF [7]; WT, RT ln(KI*/KI), 37°C): 13 kJ/mol
k6 (s^-1) x 10^4 (AtPDF [7]; Wild-type, Table S3 (with KI*app), value is k6 multiplied by 10^4): 10 ± 1 s^-1 x 10^4
k4, dissociation of the primary enzyme-actinonin complex (AtPDF [7]; assumes k3 = 10^9 M−1.s^−1 (diffusion-limited)): 140 s⁻¹ and 140 ± 10 s⁻¹
k 5 (s^−1) ×10^3 (AtPDF [7]; [17]): 63±9 s^−1 ×10^3 and 63 ± 6 s^−1 ×10^3
k 6 (s^−1) ×10^4 (AtPDF [7]; [18]): 4±1 s^−1 ×10^4
Kd (AtPDF variant G41Q [8]): 48 nM
KI*app (AtPDF variant G41Q [8]; G41Q, nm = not measurable): nM
Kd (AtPDF variant I42F [9]): 2.8 nM
k5 (s^-1) x 10^3 (AtPDF variant I42F [9]; I42F, value is k5 multiplied by 10^3): 89 ± 9 s^-1 x 10^3
k6 (s^-1) x 10^4 (AtPDF variant I42F [9]; I42F, value is k6 multiplied by 10^4): 62 ± 6 s^-1 x 10^4
Ki (AtPDF variant I42F [9]; KI*app, I42F, 2 mM substrate, actinonin preincubated 10 min at 37°C): 2.8 ± 0.2 nM
Ki (AtPDF variant I42F [9]; KI, I42F, no preincubation, started by adding enzyme): 43 ± 5 nM
Ki (AtPDF variant I130A; [19]): 1.5 ± 0.4 nM
Ki (AtPDF variant I130A; [20]): 36 ± 5 nM
k5 (s^-1) x 10^3 (AtPDF variant I130A; value is k5 multiplied by 10^3): 49 ± 5 s^-1 x 10^3
k6 (s^-1) x 10^4 (AtPDF variant I130A; value is k6 multiplied by 10^4): 21 ± 2 s^-1 x 10^4
Kd (AtPDF variant I42N): 6.3 nM
k5 (s^-1) x 10^3 (AtPDF variant I42N; I42N, value is k5 multiplied by 10^3): 52 ± 5 s^-1 x 10^3
k6 (s^-1) x 10^4 (AtPDF variant I42N; I42N, value is k6 multiplied by 10^4): 101 ± 10 s^-1 x 10^4
Ki (AtPDF variant I42N; KI*app, I42N, 2 mM substrate, actinonin preincubated 10 min at 37°C): 6.3 ± 0.4 nM
Ki (AtPDF variant I42N; KI, I42N, no preincubation, started by adding enzyme): 39 ± 4 nM
Ki (AtPDF variant I42W [10]; [19]): 2.8 ± 0.4 nM
Ki (AtPDF variant I42W [10]; [20]): 97 ± 6 nM
k5 (s^-1) x 10^3 (AtPDF variant I42W [10]; value is k5 multiplied by 10^3): 52 ± 5 s^-1 x 10^3
k6 (s^-1) x 10^4 (AtPDF variant I42W [10]; value is k6 multiplied by 10^4): 16 ± 2 s^-1 x 10^4
increase of T m by actinonin [11]: more than 20 °C
increase in the T m by actinonin (AtPDF variant G41Q [12]): 12 °C
Kd (AtPDF [13]): 4.5 nM
increase in the T m by actinonin (AtPDF variant G41M [14]): 12 °C
KI*app (AtPDF variant G41M [15]): nM

B1: AtPDF (Arabidopsis thaliana) (protein)
chain: AEVKRVSRKDDKVASATDVQFETPLKIVEYPDPILRAKNKRIDIFDENLKNLVDAMFDVMYKTDGIGLSAPQVGLNVQLMVFNPAGEPGEGKEIVLVNPKIKKYSDKLVPFDEGCLSFPGIYAEVVRPQSVKIDARDITGERFSISLSRLPARIFQHEYDHLEGVLFFDRMTDQVLDSIREELEALEKKYEEKTGLPSPERVEARQKRKAGVGFGKR
Km [16]: 6.5 ± 0.7 mM
kcat [16]: 37 ± 2 s⁻¹
kcat/Km [16]: 5700 ± 600 M⁻¹ s⁻¹
